Experimental data taken from the supplement of paper PMC7287046.

What was measured:
Settings in all cases: exposure time: 72 h
T98G [1] = assay: Bliss synergy score (Combenefit); higher = more synergy; extreme values may be limits of the assay
Procedure, shortened: (§1)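 Drug pairs were tested on glioma cell lines in 96-well plates, each pair laid out as a 6 × 6 matrix of twofold dilutions added 24 h after plating. The highest concentration of each drug matched its own IC50. Plates were read three days later, at least in triplicate, and CellTiter-Glo viability was expressed as percent of DMSO controls. From the normalised matrices, Combenefit computed Loewe, Bliss and highest single agent synergy scores.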

SF539 [2] = assay: as above
Procedure, shortened: as §1

U87 [3] = assay: as above
Procedure, shortened: as §1

SNB75 [4] = assay: as above
Procedure, shortened: as §1

U118 [5] = assay: as above
Procedure, shortened: as §1

KNS-42 [6] = assay: as above
Procedure, shortened: as §1

AM-38 [7] = assay: as above
Procedure, shortened: as §1

SF268 [8] = assay: as above
Procedure, shortened: as §1

U251 [9] = assay: as above
Procedure, shortened: as §1

T98G [10] = assay: Loewe synergy score (Combenefit); higher = more synergy; extreme values may be limits of the assay
Procedure, shortened: as §1

SF539 [11] = assay: as above
Procedure, shortened: as §1

U87 [12] = assay: as above
Procedure, shortened: as §1

SNB75 [13] = assay: as above
Procedure, shortened: as §1

U118 [14] = assay: as above
Procedure, shortened: as §1

KNS-42 [15] = assay: as above
Procedure, shortened: as §1

AM-38 [16] = assay: as above
Procedure, shortened: as §1

SF268 [17] = assay: as above
Procedure, shortened: as §1

U251 [18] = assay: as above
Procedure, shortened: as §1

T98G [19] = assay: HSA synergy score (Combenefit); higher = more synergy
Procedure, shortened: as §1

SF539 [20] = assay: as above
Procedure, shortened: as §1

U87 [21] = assay: as above
Procedure, shortened: as §1

SNB75 [22] = assay: as above
Procedure, shortened: as §1

U118 [23] = assay: as above
Procedure, shortened: as §1

KNS-42 [24] = assay: as above
Procedure, shortened: as §1

AM-38 [25] = assay: as above
Procedure, shortened: as §1

SF268 [26] = assay: as above
Procedure, shortened: as §1

U251 [27] = assay: as above
Procedure, shortened: as §1

T98 = assay: Chou-Talalay combination index (dimensionless); higher = less synergy (more antagonism)
Procedure, shortened: (§2)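 Glioma cell lines were plated at optimal density in 96-well plates (low-adhesion plates for primary cultures). After 24 h they received a 6 × 6 matrix of two drugs in twofold dilutions, each topped at its single-drug IC50, with an untreated control repeated sixfold. Three days later, viability was read by CellTiter-Glo as percent of DMSO controls, at least in triplicate. The Chou–Talalay combination index was computed by the median effect principle from single and combined viabilities.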

SF539 [28] = assay: as above
Procedure, shortened: as §2

U87 [29] = assay: as above
Procedure, shortened: as §2

KNS42 = assay: as above
Procedure, shortened: as §2

SNB75 [30] = assay: as above
Procedure, shortened: as §2

U118 [31] = assay: as above
Procedure, shortened: as §2

AM38 = assay: as above
Procedure, shortened: as §2

SF268 [32] = assay: as above
Procedure, shortened: as §2

U251 [33] = assay: as above
Procedure, shortened: as §2

| SMILES | Bliss synergy score (T98G [1]) | Bliss synergy score (SF539 [2]) | Bliss synergy score (U87 [3]) | Bliss synergy score (SNB75 [4]) | Bliss synergy score (U118 [5]) | Bliss synergy score (KNS-42 [6]) | Bliss synergy score (AM-38 [7]) | Bliss synergy score (SF268 [8]) | Bliss synergy score (U251 [9]) | Loewe synergy score (T98G [10]) | Loewe synergy score (SF539 [11]) | Loewe synergy score (U87 [12]) | Loewe synergy score (SNB75 [13]) | Loewe synergy score (U118 [14]) | Loewe synergy score (KNS-42 [15]) | Loewe synergy score (AM-38 [16]) | Loewe synergy score (SF268 [17]) | Loewe synergy score (U251 [18]) | HSA synergy score (T98G [19]) | HSA synergy score (SF539 [20]) | HSA synergy score (U87 [21]) | HSA synergy score (SNB75 [22]) | HSA synergy score (U118 [23]) | HSA synergy score (KNS-42 [24]) | HSA synergy score (AM-38 [25]) | HSA synergy score (SF268 [26]) | HSA synergy score (U251 [27]) | Chou-Talalay combination index (T98) | Chou-Talalay combination index (SF539 [28]) | Chou-Talalay combination index (U87 [29]) | Chou-Talalay combination index (KNS42) | Chou-Talalay combination index (SNB75 [30]) | Chou-Talalay combination index (U118 [31]) | Chou-Talalay combination index (AM38) | Chou-Talalay combination index (SF268 [32]) | Chou-Talalay combination index (U251 [33]) |
| --- | --- | --- | --- | --- | --- | --- | --- | --- | --- | --- | --- | --- | --- | --- | --- | --- | --- | --- | --- | --- | --- | --- | --- | --- | --- | --- | --- | --- | --- | --- | --- | --- | --- | --- | --- | --- |
| CCC(=O)N1CCN(c2ccc(-n3c(=O)ccc4cnc5ccc(-c6cnc7ccccc7c6)cc5c43)cc2C(F)(F)F)CC1 [Torin1] + C#Cc1cccc(Nc2ncnc3cc(OCCOC)c(OCCOC)cc23)c1 [Erlotinib] | 4.09 | 0.68 | 0.359 | 15.6 | 2.65 | 1.13 | 0 | 0.392 | 25.4 | 11 | 9.6 | 6.1 | 10.2 | 13.7 | 3.69 | 0 | 10.5 | 32.9 | 11.1 | 14 | 11.5 | 18.2 | 20.5 | 3.86 | 0 | 15.2 | 35.3 | 0.249 | 0.678 | 0.58 | 0.917 | 0.61 | 0.744 | 0.754 | 0.819 | 0.279 |
| CCC(=O)N1CCN(c2ccc(-n3c(=O)ccc4cnc5ccc(-c6cnc7ccccc7c6)cc5c43)cc2C(F)(F)F)CC1 [Torin1] + CCCCCCCCCCCC1=C(O)C(=O)C=C(O)C1=O [Embelin] | 0 | 0.761 | 2.62 | 1.77 | 1.08 | 0.0808 | 0.037 | 0.248 | 2.83 | 0 | 1.98 | 0.761 | 1.4 | 1.87 | 3.32 | 1.83 | 1.92 | 5.87 | 0 | 2.69 | 3.43 | 7.31 | 2.41 | 5.07 | 2.04 | 2.48 | 6.4 | 0.173 | 0.855 | 0.673 | 0.865 | 0.841 | 0.917 | 0.856 | 0.864 | 0.874 |
| CCC(=O)N1CCN(c2ccc(-n3c(=O)ccc4cnc5ccc(-c6cnc7ccccc7c6)cc5c43)cc2C(F)(F)F)CC1 [Torin1] + N#CC(c1ccnc(NCCc2cccnc2)n1)c1nc2ccccc2s1 [AS601245] | 0 | 4.4 | 0 | 0 | 0 | 0 | 0 | 0.983 | 0.142 | 0.121 | 2.66 | 0 | 0 | 2.14 | 0 | 0 | 0.416 | 0.0482 | 0.235 | 11.4 | 0 | 0.213 | 2.19 | 1.23 | 0 | 3.85 | 2.53 | 0.962 | 0.864 | 2.44 | 1.02 | 1.11 | 1.07 | 1.32 | 0.963 | 0.948 |
| CCC(=O)N1CCN(c2ccc(-n3c(=O)ccc4cnc5ccc(-c6cnc7ccccc7c6)cc5c43)cc2C(F)(F)F)CC1 [Torin1] + O=c1[nH]c2ccccc2n1C1CCN(Cc2ccc(-c3[nH]c4cc5ncnc5cc4nc3-c3ccccc3)cc2)CC1 [Akt inhibitor VIII] | 4.49 | 3.46 | 5.43 | 0.0946 | 5.39 | 6.55 | 0.504 | 0.944 | 1.02 | 2.94 | 9.28 | 0.347 | 0.719 | 9.44 | 11.3 | 7.92 | 5.18 | 0.27 | 9.39 | 10.4 | 6.03 | 3.56 | 17.9 | 16.1 | 14.7 | 13.5 | 1.85 | 0.645 | 0.778 | 0.797 | 0.852 | 0.591 | 0.769 | 0.83 | 0.85 | 0.878 |
